Source: BigSolDB 2.1

c1ccc2c(c1)oc1ccccc12
solubility (mole fraction)
Conditions	in diisopropyl ether	in ethanol	in ethyl acetate	in n-butanol	in tetrachloromethane	in toluene
283.15 K	0.0838	0.0211	0.145	0.0281	0.134	0.158
288.15 K	0.104	0.0271	0.168	0.0326	0.161	0.185
293.15 K	0.13	0.0322	0.199	0.0421	0.191	0.223
298.15 K	0.155	0.0414	0.232	0.0531	0.216	0.266
303.15 K	0.183	0.0489	0.269	0.0671	0.264	0.301
308.15 K	0.237	0.0707	0.328	0.0877	0.307	0.344
313.15 K	0.284	0.102	0.387	0.107	0.354	0.399
318.15 K	0.341	0.134	0.441	0.166	0.412	0.455
323.15 K	0.412	0.197	0.502	0.23	0.491	0.514
328.15 K	0.508	0.283	0.565	0.364	0.548	0.582
333.15 K	0.58	0.334	0.625	0.514	0.635	0.624

O=C1c2ccccc2-c2ccccc21
solubility (mole fraction)
Conditions	in diisopropyl ether	in ethanol	in ethyl acetate	in n-butanol	in tetrachloromethane	in toluene
283.15 K	0.0297	0.0209	0.123	0.0267	0.114	0.12
288.15 K	0.0356	0.0241	0.142	0.0321	0.142	0.142
293.15 K	0.0426	0.0301	0.173	0.0402	0.158	0.164
298.15 K	0.0541	0.043	0.221	0.0498	0.192	0.197
303.15 K	0.0642	0.0562	0.244	0.0685	0.241	0.228
308.15 K	0.0815	0.0976	0.284	0.0848	0.291	0.264
313.15 K	0.108	0.144	0.335	0.126	0.347	0.315
318.15 K	0.137	0.207	0.395	0.162	0.403	0.371
323.15 K	0.18	0.292	0.465	0.236	0.462	0.41
328.15 K	0.228	0.409	0.548	0.311	0.519	0.485
333.15 K	0.309	0.548	0.63	0.4	0.582	0.55
